Assay [1] relates to iPS cells (201B7). Kind of assay: WST assay, growth of iPS cells (201B7) in culture medium with β-NMN or NAM. Format: cell-based, human. As to conditions: for absorbance values at 450 nm (ref. 595 nm), WST assay, compared with basal medium: Example 2, FIG. 2, 0.2 or 0.4 mM added to E8 medium. As to the method: As iPS cells, 201B7 line which is human iPS cells was used. For iPS cells, an E8 medium (LTC) containing 19.4 mg/L of insulin, 10.7 mg/L of transferrin, 100 μg/L of bFGF, 2 μg/L of TGFβ, 14 μg/L of sodium selenite, 64 mg/L of ascorbic acid, and 543 mg/L of NaHCO3 in DMEM/F12 was used as the basal medium. First, iPS cells cultured in the basal medium were separated from a culture vessel by a cell-peeling solution and recovered. The recovered cells were counted and seeded in each well of a Matrigel-coated 96-well plate at 1000 to 2000 cells/well. At this time, a ROCK inhibitor was added to each well. The 96-well plate was cultured at 37° C. for 1 day to allow the cells to adhere, and then the medium containing the ROCK inhibitor was removed from each well, the medium was replaced with a medium obtained by adding, to the basal medium, β-NMN (Oriental Yeast Co., Ltd.) so that a final concentration became 0 to 2 mM, and culturing was performed for 3 to 4 days. Thereafter, a growth ability of cells surviving in each well was measured by water-soluble tetrazolium salts (WST) assay. Specifically, after adding WST-1 (manufactured by Nacalai Tesque) to each well and incubating at 37° C. for 1 to 4 hours, absorbance values at 450 nm (ref. 595 nm) were measured using a microplate reader (manufactured by BMG LABTECH). The term “absorbance value (450 to 595 nm)” is an absorbance value at 450 nm using an absorbance value at 595 nm as a reference value, and is specifically a value obtained by subtracting an absorbance value at 595 nm from an absorbance value at 450 nm. Specifically, iPS cells were cultured and the WST assay was performed in the same manner as in Example 1 except that the medium added after removing the medium containing the ROCK inhibitor was changed to a culture medium to which β-NMN was added so that a final concentration became 0, 0.2, or 0.4 mM, or a culture medium to which NAM was added so that a final concentration became 0, 0.2, or 0.4 mM. The iPS cells cultured in the basal medium used in Example 1 were separated from a culture vessel by a cell-peeling solution and recovered. The recovered cells were counted and seeded in each well of a Matrigel-coated 96-well plate at 1000 to 2000 cells/well. At this time, a ROCK inhibitor and β-NMN having a final concentration of 0 to 1 mM were added to each well. The cells in 96-well plate was cultured at 37° C. for 1 day to allow the cells to adhere, and then the medium containing the ROCK inhibitor was removed from each well, the medium was replaced with a culture medium obtained by adding, to the basal medium, β-NMN so that a final concentration became 0 to 1 mM, and culturing was performed for 3 to 4 days. Thereafter, WST assay was performed in the same manner as in Example 1. The results of measuring absorbance values at 450 nm (ref. 595 nm) of each cells cultured in a medium to which both ROCK inhibitor and β-NMN were added are shown in FIG. 4.

The subject of a further assay is iPS cells (253G1). In words: WST assay, growth of iPS cells (253G1) in culture medium with β-NMN or NAM. The following applies: for absorbance values at 450 nm (ref. 595 nm), WST assay, compared with basal medium: Example 3, FIG. 3, added to E8 medium. The assay is classed as cell-based. As to the method:
First, iPS cells cultured in the basal medium were separated from a culture vessel by a cell-peeling solution and recovered. The recovered cells were counted and seeded in each well of a Matrigel-coated 96-well plate at 1000 to 2000 cells/well. At this time, a ROCK inhibitor was added to each well. The 96-well plate was cultured at 37° C. for 1 day to allow the cells to adhere, and then the medium containing the ROCK inhibitor was removed from each well, the medium was replaced with a medium obtained by adding, to the basal medium, β-NMN (Oriental Yeast Co., Ltd.) so that a final concentration became 0 to 2 mM, and culturing was performed for 3 to 4 days. Thereafter, a growth ability of cells surviving in each well was measured by water-soluble tetrazolium salts (WST) assay. Specifically, after adding WST-1 (manufactured by Nacalai Tesque) to each well and incubating at 37° C. for 1 to 4 hours, absorbance values at 450 nm (ref. 595 nm) were measured using a microplate reader (manufactured by BMG LABTECH). The term “absorbance value (450 to 595 nm)” is an absorbance value at 450 nm using an absorbance value at 595 nm as a reference value, and is specifically a value obtained by subtracting an absorbance value at 595 nm from an absorbance value at 450 nm. iPS cells were cultured in culture medium containing β-NMN or NAM, and the effects of β-NMN and NAM on growth were compared. As iPS cells, 253G1 line was used. Specifically, iPS cells were cultured and WST assay was performed in the same manner as in Example 1 except that 253G1 line was used instead of 201B7 line.

Assay [2] has as its system Human mesenchymal stem cells (human MSCs). In words: WST assay, proliferative activity of human mesenchymal stem cells. Format: cell-based. The following applies: 72 hours. The protocol:
Human MSCs purchased from Lonza were used. As a basal medium for human MSCs, a dedicated maintenance medium purchased from Lonza was used. Human MSCs were seeded in 96-well plates (Nunc) at 2×10^3 cells/well (n=3 to 4). They were cultured at 37° C. in a CO2 incubator to allow them to adhere, and then β-NMN (manufactured by Oriental Yeast Co., Ltd.) was added so that a final concentration became 1.0, 0.1, 0.01, or 0.001 mM, and culture was further performed at 37° C. in a CO2 incubator for 72 hours. Thereafter, proliferative activity of cells in each well was measured with WST assay. Specifically, after adding a viable cell count reagent SF (Nacalai Tesque) to each well and incubating at 37° C. for 1 to 4 hours, absorbance at 450 nm was measured with the reference wavelength at 620 nm using a microplate reader (absorbance values at 450 nm (ref. 620 nm) (BMG LABTECH). The term “absorbance values at 450 nm (ref. 620 nm)” is an absorbance value at 450 nm using an absorbance value at 620 nm as a reference value, and is specifically a value obtained by subtracting an absorbance value at 620 nm from an absorbance value at 450 nm. [0045]

For assay [3], the system named is iPS cells (201B7). Kind of assay: Alkaline phosphatase measurement test (undifferentiated marker) on iPS cells (201B7). The assay is classed as cell-based, human. The following applies: Example 4, FIG. 5, β-NMN up to 1 mM added with ROCK inhibitor, vs β-NMN-free medium. The protocol: iPS cells were cultured in a culture medium containing β-NMN, and the effects of β-NMN on differentiation potential and growth were examined. As iPS cells, a 201B7 line was used. The differentiation potential was examined using the enzyme activity of alkaline phosphatase, which is an undifferentiated marker, as an indicator. First, the iPS cells cultured in the basal medium used in Example 1 were separated from a culture vessel by a cell-peeling solution and recovered. The recovered cells were counted and seeded in each well of a Matrigel-coated 96-well plate at 2000 cells/well. At this time, the ROCK inhibitor and β-NMN having a final concentration of 0 to 1 mM were added to each well. The cells in 96-well plate was cultured at 37° C. for 1 day to allow the cells to adhere, and then the medium containing the ROCK inhibitor was removed from each well, the medium was replaced with a medium obtained by adding, to the basal medium, β-NMN so that a final concentration became 0 to 1 mM, and culturing was performed for 3 to 4 days. During this period, the medium was replaced daily. […] After drying the wells, a bicarbonate buffer containing […], which is an alkaline phosphatase measurement reagent, was added and incubated at 37° C. for 30 minutes, and then absorbance at 405 nm was measured using a microplate reader.

Assay [4] has as its system iPS cells (201B7). Kind of assay: Flow cytometry of undifferentiated markers (SSEA4, low sulfated keratan sulfate) in iPS cells (201B7). The assay is classed as cell-based, human. The following applies: 5 or more passages, vs 0 mM. The protocol: The differentiation potential of iPS cells maintained and grown in the presence of β-NMN was confirmed. As iPS cells, a 201B7 line was used. Specifically, iPS cells were seeded in a 35 mm dish coated with Matrigel (Corning) at 1.5×10^4 cells/dish. As culture medium in which β-NMN was added to a basal medium (E8 medium) of iPS cells so that a final concentration became 0, 0.25, or 1 mM was used. At the time of seeding, Rho-dependent apoptosis was suppressed using a culture medium to which a Rock inhibitor was added so that a final concentration became 10 μM. The medium was replaced daily and the cells were passaged on day 5 and 6. iPS cells cultured for 5 or more passages in the medium to which β-NMN was added were stained with each of antibodies against SSEA4 and against low sulfated keratan sulfate which are undifferentiated markers, and cells expressing the undifferentiated markers were analyzed with a flow cytometer.
(In general: In flow cytometry, cells or beads pass a laser one at a time.)

In the case of `NC(=O)c1cccnc1` [NAM, nicotinamide, reference compound], the entries for the “absorbance values at 450 nm (ref. 595 nm), WST assay, compared with basal medium” value in the assay on iPS cells (201B7) [1] and in the assay with iPS cells (253G1) were “higher absorbance values than cells cultured in the basal medium” and “slightly higher absorbance value than that of the cells cultured in the basal medium”, respectively.
With `NC(=O)c1ccc[n+]([C@@H]2O[C@H](COP(=O)([O-])O)[C@@H](O)[C@H]2O)c1` [β-NMN, β-nicotinamide mononucleotide], in assay [2] (addition of β-NMN 0.001 to 1.0 mM), the “proliferative activity of human MSCs (absorbance, WST assay), overall” value is “increased the absorbance value and accelerated proliferative activity”. For the same compound, the “Absorbance value at450 nm (ref. 620 nm)” value was determined as 0.573 ± 0.0312 in assay [2] (β-NMN concentration 0.001 mM), 0.604 ± 0.0587 in assay [2] (β-NMN concentration 0.01 mM), 0.634 ± 0.0411 in assay [2] (β-NMN concentration 0.1 mM) and 0.615 ± 0.0340 in assay [2] (β-NMN concentration 1 mM). The “absorbance values at 405 nm, alkaline phosphatase measurement test” value in the assay on iPS cells (201B7) [3] is “higher than that of the cells cultured in the β-NMN-free medium”. In the assay with iPS cells (201B7) [4] (Example 6, FIGS. 6 to 8, 0.25 mM or 1 mM of β-NMN), the “Expression of SSEA4 (flow cytometry, anti-SSEA4 antibody)” value was “maintained”. Besides, the “Expression of low sulfated keratan sulfate (flow cytometry, R10G antibody)” value in the assay with iPS cells (201B7) [4] (Example 6, FIGS. 9 to 11, 0.25 mM or 1 mM of β-NMN) is listed as “maintained”. For the same compound, the “absorbance values at 450 nm (ref. 595 nm), WST assay” value with iPS cells (201B7) [1] (Example 1, FIG. 1, medium containing 0.1 mM or more of β-NMN vs β-NMN-free medium, 3 to 4 days) is listed as “greater than that of the cells cultured in the β-NMN-free medium”; in the assay on iPS cells (201B7) [1] (Example 1, FIG. 1, β-NMN 0.8 mM or more), “tended to slightly decrease”; with iPS cells (201B7) [1] (Example 1, FIG. 1, β-NMN 0.1 to 0.2 mM) it was “increased in a concentration-dependent manner”; with iPS cells (201B7) [1] (Example 1, FIG. 1, β-NMN 0.2 to 0.6 mM) it was “the absorbance value was the same”. The “absorbance values at 450 nm (ref. 595 nm), WST assay, compared with basal medium” value in the assay with iPS cells (201B7) [1] is recorded as “higher absorbance values than cells cultured in the basal medium”; in the assay with iPS cells (253G1), “higher absorbance value than that of the cell cultured in the basal medium”. Besides, the “absorbance values at 450 nm (ref. 595 nm), WST assay, β-NMN-added medium compared with NAM-added medium” value in the assay with iPS cells (201B7) [1] (Example 2, FIG. 2, final concentration 0.2 mM and 0.4 mM) was “significantly higher than that of the cells cultured in the NAM-added medium”; with iPS cells (253G1) (Example 3, FIG. 3, final concentration 0.2 mM and 0.4 mM), “significantly higher than that of the cells cultured in the NAM-added medium”. Moreover, the “absorbance values at 450 nm (ref. 595 nm), WST assay (effect on growth)” value in the assay with iPS cells (201B7) [1] (Example 4, FIG. 4, β-NMN 0 to 1 mM added together with ROCK inhibitor at seeding and afterwards) was “growth-accelerating effect on iPS cells was obtained in a β-NMN concentration-dependent manner”.

For the origin of these results see patent US12331322B2, “Agent for accelerating growth of pluripotent stem cells” (Oriental Yeast Co., Ltd., priority 2017, dated 2025).
